Results: the supplement of paper PMC10307832

How the values were obtained:
Assay in all cases: relative viability (nuclei count vs DMSO), 5 days (fraction); higher = more cells survive
NCI-H2009 = test system: NCI-H2009
Summary of the method: (§1)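 Medians of duplicate plates are given as relative viability. That measure is the nuclei count in treated wells divided by the count in vehicle wells. Counts were taken on 4× images of lung cancer cell lines in 1536-well plates, 5 days after pin-tool dosing the day after seeding with one drug alone or a fixed anchor-drug dose plus five library-drug doses (not always all listed) in √10 steps.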

NCI-H647 = test system: NCI-H647
Summary of the method: as §1

NCI-H2126 = test system: NCI-H2126
Summary of the method: as §1

NCI-H2170 = test system: NCI-H2170
Summary of the method: as §1

ChaGo-K-1 = test system: ChaGo-K-1
Summary of the method: as §1

LK-2 = test system: LK-2
Summary of the method: as §1

NCI-H3122 = test system: NCI-H3122
Summary of the method: as §1

NCI-H596 = test system: NCI-H596
Summary of the method: as §1

NCI-H1734 = test system: NCI-H1734
Summary of the method: as §1

NCI-H441 = test system: NCI-H441
Summary of the method: as §1

HOP-62 = test system: HOP-62
Summary of the method: as §1

H3255 = test system: H3255
Summary of the method: as §1

CAL-12T = test system: CAL-12T
Summary of the method: as §1

ABC-1 = test system: ABC-1
Summary of the method: as §1

201T = test system: 201T
Summary of the method: as §1

SW 900 = test system: SW 900
Summary of the method: as §1

NCI-H1755 = test system: NCI-H1755
Summary of the method: as §1

NCI-H1651 = test system: NCI-H1651
Summary of the method: as §1

EMC-BAC-2 = test system: EMC-BAC-2
Summary of the method: as §1

LXF-289 = test system: LXF-289
Summary of the method: as §1

NCI-H1563 = test system: NCI-H1563
Summary of the method: as §1

PC-14 = test system: PC-14
Summary of the method: as §1

NCI-H322M = test system: NCI-H322M
Summary of the method: as §1

NCI-H2087 = test system: NCI-H2087
Summary of the method: as §1

Q: `CCCCCCCCCCCC1=C(O)C(=O)C=C(O)C1=O` [Embelin] + COc1cc2c(Oc3ccc(NC(=O)C4(C(=O)Nc5ccc(F)cc5)CC4)cc3F)ccnc2cc1OCCCN1CCOCC1 [Foretinib] (partner 0.25 µM) was tested. Which relative viability (NCI-H2009; first compound 0.08 µM) did it give?
A: 1.24

Q: What about the relative viability (NCI-H2009; first compound 0.8 µM) of the same molecule?
A: 1.33

Q: And the relative viability (NCI-H2009; first compound 2.53 µM)?
A: 1.24

Q: And the relative viability (NCI-H2009; first compound 8 µM)?
A: 1.17

Q: And the relative viability (NCI-H647; first compound 0.08 µM)?
A: 1.37

Q: And the relative viability (NCI-H647; first compound 0.8 µM)?
A: 1.38

Q: What about the relative viability (NCI-H647; first compound 2.53 µM) of the same molecule?
A: 1.28

Q: What about the relative viability (NCI-H647; first compound 8 µM) of the same molecule?
A: 1.08

Q: And the relative viability (NCI-H2126; first compound 0.08 µM)?
A: 1.12

Q: And the relative viability (NCI-H2126; first compound 0.8 µM)?
A: 1.21

Q: And the relative viability (NCI-H2126; first compound 2.53 µM)?
A: 1.23

Q: And the relative viability (NCI-H2126; first compound 8 µM)?
A: 1.2

Q: And the relative viability (NCI-H2170; first compound 0.08 µM)?
A: 0.539

Q: And the relative viability (NCI-H2170; first compound 0.8 µM)?
A: 1.08

Q: And the relative viability (NCI-H2170; first compound 2.53 µM)?
A: 1.06

Q: And the relative viability (NCI-H2170; first compound 8 µM)?
A: 1

Q: And the relative viability (ChaGo-K-1; first compound 0.08 µM)?
A: 0.951

Q: What about the relative viability (ChaGo-K-1; first compound 0.8 µM) of the same molecule?
A: 1.01

Q: And the relative viability (ChaGo-K-1; first compound 2.53 µM)?
A: 1

Q: What about the relative viability (ChaGo-K-1; first compound 8 µM) of the same molecule?
A: 1.01

Q: And the relative viability (LK-2; first compound 0.08 µM)?
A: 1.13

Q: And the relative viability (LK-2; first compound 0.8 µM)?
A: 1.7

Q: What about the relative viability (LK-2; first compound 2.53 µM) of the same molecule?
A: 1.47

Q: And the relative viability (LK-2; first compound 8 µM)?
A: 1.79

Q: And the relative viability (NCI-H3122; first compound 0.08 µM)?
A: 0.98

Q: And the relative viability (NCI-H3122; first compound 0.8 µM)?
A: 1.01

Q: And the relative viability (NCI-H3122; first compound 2.53 µM)?
A: 0.951

Q: What about the relative viability (NCI-H3122; first compound 8 µM) of the same molecule?
A: 1.03

Q: What about the relative viability (NCI-H596; first compound 0.08 µM) of the same molecule?
A: 0.834

Q: What about the relative viability (NCI-H596; first compound 0.8 µM) of the same molecule?
A: 0.835

Q: What about the relative viability (NCI-H596; first compound 2.53 µM) of the same molecule?
A: 1.02

Q: What about the relative viability (NCI-H596; first compound 8 µM) of the same molecule?
A: 0.764

Q: What about the relative viability (NCI-H1734; first compound 0.08 µM) of the same molecule?
A: 0.899

Q: And the relative viability (NCI-H1734; first compound 0.8 µM)?
A: 0.926

Q: And the relative viability (NCI-H1734; first compound 2.53 µM)?
A: 0.989

Q: And the relative viability (NCI-H1734; first compound 8 µM)?
A: 0.924

Q: And the relative viability (NCI-H441; first compound 0.08 µM)?
A: 1.05

Q: What about the relative viability (NCI-H441; first compound 0.8 µM) of the same molecule?
A: 1.09

Q: What about the relative viability (NCI-H441; first compound 2.53 µM) of the same molecule?
A: 1.22

Q: And the relative viability (NCI-H441; first compound 8 µM)?
A: 1.09

Q: And the relative viability (HOP-62; first compound 0.08 µM)?
A: 1.27

Q: And the relative viability (HOP-62; first compound 0.8 µM)?
A: 1.18

Q: And the relative viability (HOP-62; first compound 2.53 µM)?
A: 1.23

Q: What about the relative viability (HOP-62; first compound 8 µM) of the same molecule?
A: 1.25

Q: What about the relative viability (H3255; first compound 0.08 µM) of the same molecule?
A: 0.831

Q: What about the relative viability (H3255; first compound 0.8 µM) of the same molecule?
A: 1.01

Q: What about the relative viability (H3255; first compound 2.53 µM) of the same molecule?
A: 0.82

Q: What about the relative viability (H3255; first compound 8 µM) of the same molecule?
A: 0.956

Q: What about the relative viability (CAL-12T; first compound 0.08 µM) of the same molecule?
A: 1.1

Q: What about the relative viability (CAL-12T; first compound 0.8 µM) of the same molecule?
A: 1.22

Q: And the relative viability (CAL-12T; first compound 2.53 µM)?
A: 1.26

Q: What about the relative viability (CAL-12T; first compound 8 µM) of the same molecule?
A: 1.16

Q: And the relative viability (ABC-1; first compound 0.08 µM)?
A: 1.17

Q: And the relative viability (ABC-1; first compound 0.8 µM)?
A: 1.12

Q: What about the relative viability (ABC-1; first compound 2.53 µM) of the same molecule?
A: 1.05

Q: What about the relative viability (ABC-1; first compound 8 µM) of the same molecule?
A: 1.08

Q: And the relative viability (201T; first compound 0.08 µM)?
A: 1.14

Q: And the relative viability (201T; first compound 0.8 µM)?
A: 1.15

Q: And the relative viability (201T; first compound 2.53 µM)?
A: 1.18

Q: What about the relative viability (201T; first compound 8 µM) of the same molecule?
A: 0.961

Q: What about the relative viability (SW 900; first compound 0.08 µM) of the same molecule?
A: 0.89

Q: And the relative viability (SW 900; first compound 0.8 µM)?
A: 0.915

Q: And the relative viability (SW 900; first compound 2.53 µM)?
A: 1.02

Q: And the relative viability (SW 900; first compound 8 µM)?
A: 0.876

Q: And the relative viability (NCI-H1755; first compound 0.08 µM)?
A: 0.912

Q: And the relative viability (NCI-H1755; first compound 0.8 µM)?
A: 0.948

Q: What about the relative viability (NCI-H1755; first compound 2.53 µM) of the same molecule?
A: 0.927

Q: And the relative viability (NCI-H1755; first compound 8 µM)?
A: 0.906

Q: And the relative viability (NCI-H1651; first compound 0.08 µM)?
A: 0.848

Q: What about the relative viability (NCI-H1651; first compound 0.8 µM) of the same molecule?
A: 0.865

Q: And the relative viability (NCI-H1651; first compound 2.53 µM)?
A: 0.924

Q: What about the relative viability (NCI-H1651; first compound 8 µM) of the same molecule?
A: 0.769

Q: What about the relative viability (EMC-BAC-2; first compound 0.08 µM) of the same molecule?
A: 1.05

Q: What about the relative viability (EMC-BAC-2; first compound 0.8 µM) of the same molecule?
A: 1.09

Q: And the relative viability (EMC-BAC-2; first compound 2.53 µM)?
A: 0.973

Q: What about the relative viability (EMC-BAC-2; first compound 8 µM) of the same molecule?
A: 1.07

Q: And the relative viability (LXF-289; first compound 0.08 µM)?
A: 0.999

Q: And the relative viability (LXF-289; first compound 0.8 µM)?
A: 1

Q: And the relative viability (LXF-289; first compound 2.53 µM)?
A: 1.06

Q: What about the relative viability (LXF-289; first compound 8 µM) of the same molecule?
A: 0.998

Q: And the relative viability (NCI-H1563; first compound 0.08 µM)?
A: 0.932

Q: What about the relative viability (NCI-H1563; first compound 0.8 µM) of the same molecule?
A: 1.09

Q: What about the relative viability (NCI-H1563; first compound 2.53 µM) of the same molecule?
A: 0.944

Q: What about the relative viability (NCI-H1563; first compound 8 µM) of the same molecule?
A: 0.896

Q: What about the relative viability (PC-14; first compound 0.08 µM) of the same molecule?
A: 1.05

Q: And the relative viability (PC-14; first compound 0.8 µM)?
A: 0.992

Q: What about the relative viability (PC-14; first compound 2.53 µM) of the same molecule?
A: 1.06

Q: And the relative viability (PC-14; first compound 8 µM)?
A: 1.08

Q: What about the relative viability (NCI-H322M; first compound 0.08 µM) of the same molecule?
A: 0.938

Q: What about the relative viability (NCI-H322M; first compound 0.8 µM) of the same molecule?
A: 1.22

Q: What about the relative viability (NCI-H322M; first compound 2.53 µM) of the same molecule?
A: 1.03

Q: What about the relative viability (NCI-H322M; first compound 8 µM) of the same molecule?
A: 0.961

Q: And the relative viability (NCI-H2087; first compound 0.08 µM)?
A: 1.07

Q: What about the relative viability (NCI-H2087; first compound 0.8 µM) of the same molecule?
A: 1.27

Q: And the relative viability (NCI-H2087; first compound 2.53 µM)?
A: 1.03

Q: What about the relative viability (NCI-H2087; first compound 8 µM) of the same molecule?
A: 1.19
